One assay has as its target T1, human TLR8 (Homo sapiens, UniProt Q9NR97).
T1 construct: host or cells: HEK293 NF-kB reporter cells
T1 sequence (Q9NR97 27-1041): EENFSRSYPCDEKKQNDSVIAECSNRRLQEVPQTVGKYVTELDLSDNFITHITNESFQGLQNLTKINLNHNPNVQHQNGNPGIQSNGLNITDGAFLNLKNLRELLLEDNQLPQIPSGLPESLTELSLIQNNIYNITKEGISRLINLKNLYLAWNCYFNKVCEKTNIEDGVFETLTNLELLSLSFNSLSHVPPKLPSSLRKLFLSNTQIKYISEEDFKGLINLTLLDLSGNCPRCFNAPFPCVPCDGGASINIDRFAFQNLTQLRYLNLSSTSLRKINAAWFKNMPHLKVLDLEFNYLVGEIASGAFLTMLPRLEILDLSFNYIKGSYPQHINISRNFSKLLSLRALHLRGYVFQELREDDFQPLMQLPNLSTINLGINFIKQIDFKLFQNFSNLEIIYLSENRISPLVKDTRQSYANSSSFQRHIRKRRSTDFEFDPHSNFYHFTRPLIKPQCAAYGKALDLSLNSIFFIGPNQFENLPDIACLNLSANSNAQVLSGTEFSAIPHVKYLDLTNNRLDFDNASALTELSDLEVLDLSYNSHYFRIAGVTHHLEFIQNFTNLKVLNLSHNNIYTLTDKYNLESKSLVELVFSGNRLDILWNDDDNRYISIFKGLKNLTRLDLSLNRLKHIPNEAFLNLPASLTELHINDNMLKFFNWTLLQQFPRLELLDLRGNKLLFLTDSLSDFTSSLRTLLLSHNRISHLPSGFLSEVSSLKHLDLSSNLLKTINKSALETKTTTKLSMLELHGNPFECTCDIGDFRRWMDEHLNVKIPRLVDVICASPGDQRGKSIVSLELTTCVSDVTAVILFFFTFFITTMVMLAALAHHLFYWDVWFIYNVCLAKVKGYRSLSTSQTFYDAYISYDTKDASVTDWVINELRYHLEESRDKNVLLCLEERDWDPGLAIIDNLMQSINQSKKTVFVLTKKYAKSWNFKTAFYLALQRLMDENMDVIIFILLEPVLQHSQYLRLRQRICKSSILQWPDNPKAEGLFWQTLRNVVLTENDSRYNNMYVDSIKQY
In words: HEK Reporter Assay, HEK293 NFKB reporter cells expressing human TLR8. The format is cell-based. Conditions: read-out: HEK293 hTLR8 EC50. How it is done: (§1) Each compound was synthesized, purified, and characterized by mass spectrometry and shown to have the mass indicated. Additional experimental procedures are found in the Examples. Activity against Human Embryonic Kidney (HEK) 293 NFKB reporter cells expressing human TLR7 or human TLR8 was measured according to Example 202.
(§2) Human Embryonic Kidney (HEK293) reporter cells expressing human TLR7 or human TLR8 (InvivoGen, San Diego Calif.), were used with vendor protocols for cellular propagation and experimentation. Briefly, cells were grown to 80-85% confluence at 5% CO2 in DMEM supplemented with 10% FBS, ZEOCIN™, and Blasticidin. Cells were then seeded in 96-well flat plates at 4×10^4 cells/well with substrate containing HEK detection medium and immunostimulatory molecules.

The target in another assay is T2, human TLR7 (Homo sapiens, UniProt Q9NYK1).
T2 construct: host or cells: HEK293 NF-kB reporter cells
T2 sequence (Q9NYK1 27-1049): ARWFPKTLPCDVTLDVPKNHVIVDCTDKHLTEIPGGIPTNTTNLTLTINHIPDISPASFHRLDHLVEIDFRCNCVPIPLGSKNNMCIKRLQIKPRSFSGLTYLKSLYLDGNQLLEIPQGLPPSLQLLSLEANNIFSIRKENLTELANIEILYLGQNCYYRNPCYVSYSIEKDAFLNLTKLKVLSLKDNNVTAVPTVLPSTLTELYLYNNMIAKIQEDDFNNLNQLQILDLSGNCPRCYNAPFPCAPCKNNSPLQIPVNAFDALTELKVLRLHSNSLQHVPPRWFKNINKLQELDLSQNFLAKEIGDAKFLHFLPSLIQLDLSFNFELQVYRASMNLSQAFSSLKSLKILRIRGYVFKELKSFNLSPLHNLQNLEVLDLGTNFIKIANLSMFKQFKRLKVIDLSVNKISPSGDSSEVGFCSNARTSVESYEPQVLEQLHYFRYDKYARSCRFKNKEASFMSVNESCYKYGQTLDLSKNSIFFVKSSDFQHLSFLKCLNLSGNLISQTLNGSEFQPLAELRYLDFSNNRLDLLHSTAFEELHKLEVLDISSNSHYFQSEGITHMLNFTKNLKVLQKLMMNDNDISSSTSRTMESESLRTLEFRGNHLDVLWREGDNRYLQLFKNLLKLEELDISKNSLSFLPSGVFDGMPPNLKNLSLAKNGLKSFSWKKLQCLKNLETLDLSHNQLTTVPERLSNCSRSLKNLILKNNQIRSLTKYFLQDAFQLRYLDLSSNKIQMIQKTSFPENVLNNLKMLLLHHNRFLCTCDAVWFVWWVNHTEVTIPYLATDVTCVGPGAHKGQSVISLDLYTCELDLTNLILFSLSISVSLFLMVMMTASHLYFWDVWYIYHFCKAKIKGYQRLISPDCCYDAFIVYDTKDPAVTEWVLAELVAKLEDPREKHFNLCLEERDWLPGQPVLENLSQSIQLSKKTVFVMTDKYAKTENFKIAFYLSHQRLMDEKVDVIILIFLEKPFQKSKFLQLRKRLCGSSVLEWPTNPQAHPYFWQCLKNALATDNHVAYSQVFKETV
In words: HEK Reporter Assay, HEK293 NFKB reporter cells expressing human TLR7. The format is cell-based. Conditions: read-out: HEK293 hTLR7 EC50. As to the method: as §1, §2

In the case of `CCCN(OCCNC(=O)OC1CCC1)C(=O)C1=Cc2ccc(-c3cnc(CN)nc3)cc2N=C(N)C1` [HxBz-15, cyclobutyl N-[2-[[2-amino-8-[2-(aminomethyl)pyrimidin-5-yl]-3H-1-benzazepine-4-carbonyl]-propyl-amino]oxyethyl]carbamate], the EC50 on human TLR8 was found to be 10 nM; on human TLR7, 35 nM.
With `CCCN(OCC)C(=O)C1=Cc2ccc(-c3cnc(C(=O)N4CCC[C@H]4C(=O)OC)nc3)cc2N=C(N)C1` [HxBz-12], the EC50 was determined as 6 nM at human TLR8 and 159 nM at human TLR7.
As for `CCCN(OCCNC(=O)N(C)C)C(=O)C1=Cc2ccc(-c3cnc(CN)nc3)cc2N=C(N)C1` [HxBz-20], the figures for the EC50 on human TLR8 and on human TLR7 were 3690 nM and 2940 nM, respectively.
For `CCCN(OCC)C(=O)C1=Cc2ccc(N3CCNCC3)cc2N=C(N)C1` [HxBz-18], in that order: 281 nM and 6310 nM.
On the same counts, the results for `CCCN(OCC)C(=O)C1=Cc2ccc(-c3cnn(S(=O)(=O)N4CC(CN)C4)c3)cc2N=C(N)C1` [HxBz-9] are 397 nM and 8630 nM.
For `CCCN(OCCNC(=O)OC(C)C)C(=O)C1=Cc2ccc(-c3cncc(S(=O)(=O)N4CC(CN)C4)c3)cc2N=C(N)C1` [HxBz-35], in that order: 174 nM and 684 nM.
In the case of `CCCN(CCCNC(=O)OC1CCC1)C(=O)C1=Cc2ccc(-c3cncc(S(=O)(=O)N4CC(CN)C4)c3)cc2N=C(N)C1` [HxBz-32, cyclobutyl N-[3-[[2-amino-8-[5-[3-(aminomethyl)azetidin-1-yl]sulfonyl-3-pyridyl]-3H-1-benzazepine-4-carbonyl]-propyl-amino]propyl]carbamate], the EC50 on human TLR8 was found to be 1520 nM; on human TLR7, 1280 nM.
For `CCCN(OCCO)C(=O)C1=Cc2ccc(-c3cnc(CN)nc3)cc2N=C(N)C1` [HxBz-22, 2-amino-8-[2-(aminomethyl)pyrimidin-5-yl]-N-(2-hydroxyethoxy)-N-propyl-3H-1-benzazepine-4-carboxamide], in that order: 1150 nM and 3920 nM.
On the same counts, the results for `CCCN(OCCNC(=O)OC1CCC1)C(=O)C1=Cc2ccc(-c3cncc(S(=O)(=O)N4CC(CN)C4)c3)cc2N=C(N)C1` [HxBz-34] are 79 nM and 322 nM.
For `CCCN(OCCNC(=O)OC(C)C)C(=O)C1=Cc2ccc(-c3cnc(CN)nc3)cc2N=C(N)C1` [HxBz-27, isopropyl N-[2-[[2-amino-8-[2-(aminomethyl)pyrimidin-5-yl]-3H-1-benzazepine-4-carbonyl]-propyl-amino]oxyethyl]carbamate], in that order: 9 nM and 26 nM.
As for `CCCN(OCC)C(=O)C1=Cc2ccc(-c3cnc(CN)nc3)cc2N=C(N)C1` [HxBz-5, 2-amino-8-[2-(aminomethyl)pyrimidin-5-yl]-N-ethoxy-N-propyl-3H-1-benzazepine-4-carboxamide], the EC50 on human TLR8 is 17 nM; at human TLR7, 525 nM.

Source of the values: US20220195066A1, “ANTI-CEA IMMUNOCONJUGATES, AND USES THEREOF” (BOLT BIOTHERAPEUTICS, INC., priority 2020, published 2022).
